Measurements from publication PMC9749896 (Bioorganic & medicinal chemistry letters, 2022).
pEC50: −log10 of the molar value.

How the values were obtained:
[1] = tested on: EGFR^L858R/T790M/C797S models; details: daily oral dosing at 50 mg/kg; cited from earlier work
A431 (wt EGFR) = details: daily oral dosing at 50 mg/kg; cited from earlier work
[2] = tested on: Ba/F3 EGFR^L858R/T790M cells; assay: cells; details: Mus musculus, BaF3, read-out: cell EC50, Ba/F3 EGFR L858R/T790M
[3] = tested on: Ba/F3 EGFR^L858R/T790M/C797S cells; assay: cells; details: Mus musculus, BaF3, read-out: cell EC50, Ba/F3 EGFR L858R/T790M/C797S
[4] = tested on: Ba/F3 EGFR^L858R/T790M cells; details: cited from earlier work
H1975 (EGFR^L858R/T790M) = details: daily oral dosing at 100 mg/kg; cited from earlier work

CN1CCC(c2ccc(-c3ccc4c(c3)C(=O)N(C(C(=O)Nc3nccs3)c3cc(F)ccc3O)C4)cc2)CC1 (stereo not drawn) [Compound 4]
efficacy in triple mutant (EGFR L858R/T790M/C797S) models [1]: tumor regression | efficacy in A431 (wt EGFR) model (A431 (wt EGFR)): minimal effects

CN1CCC(c2ccc(-c3ccc4ncn(C(C(=O)Nc5nccs5)c5ccccc5)c(=O)c4c3)cc2)CC1 (stereo not drawn) [Compound 23]
pEC50 [2]: 6.14 | pEC50 [3]: 7.30

O=C(Nc1nccs1)C(c1cc(F)ccc1O)N1Cc2ccc(-c3ccc(N4CCNCC4)cc3)cc2C1=O (stereo not drawn) [Compound 2]
single-agent activity in Ba/F3 EGFR L858R/T790M antiproliferative assay [4]: good single-agent activity | H1975 model efficacy (H1975 (EGFR^L858R/T790M)): efficacy was observed
